Experiments:
hepatitis B virus (HBV) [1] = assay: Intracellular HBV DNA in 2.2.15 cells (Southern blot, densitometry); format: cell-based, HBV in human hepatoma HepG 2.2.15 cells; settings: for increase in intracellular HBV copy abundance: adjusted for loading variation
Protocol: HepG 2.2.15 cells were grown for 6 days in the presence of the indicated concentration of NBDNJ with one change of medium. After the sixth day (seventh day in culture), cells and medium were collected. Autoradiograms of the viral DNA detected by hybridization of membranes to HBV probes are shown.
FIG. 2B: autoradiogram of a Southern blot of total intracellular DNA, digested to completion with EcoRI, from cells maintained in the absence of NBDNJ (lane 1) and in the presence of the following NBDNJ concentrations:
DNA was prepared from the pellets as in Sells and Chen, Proc. Natl. Acad. Sci. USA 84, 1005-1009 (1987). For Southern blots [Maniatis et al., Molecular cloning, a laboratory manual, Cold Spring Harbor Laboratory, Cold Spring Harbor, N.Y. (1982)], DNA was resolved by electrophoresis through 1.2% agarose, transferred to H+ bond (Amersham) filter paper and hybridized with radioactive ^32 P (Amersham) HBV probe (made by the random priming method described by the kit manufacturer, (Amersham), using pHBV as template [Foster et al., Proc. Natl. Acad. Sci. USA 88, 2888-2892 (1991)].
The NBDNJ-mediated decrease in virion associated HBV DNA in the medium could have been due to a decrease in viral DNA synthesis. Alternatively, it could have been due to a post synthetic event such as virion assembly, transport or egress from the cell. To distinguish between these possibilities, the amount of intracellular HBV specific DNA in untreated and NBDNJ treated 2.2.15 cells was compared.
Total cellular DNA was prepared from treated and untreated cells and digested to completion with EcoRI to linearize viral genomes. Near equal microgram amounts of digestion products (as determined by ethidium bromide staining and hybridization to a cell specific probe) were resolved by electrophoresis, Southern blotted and hybridized with the HBV specific probe (FIG. 2B). Unit length HBV genomes migrating as 3.2 kb bands are detected in DNA derived from untreated 2.2.15 cells (lane 1) and virions isolated from control culture medium (lane 5).

α-glucosidase I = settings: N-linked oligosaccharide processing enzyme; cited from earlier work
SHBs (S) antigen = assay: ELISA of SHBs (S) antigen in unfractionated culture medium of 2.2.15 cells; format: cell-based, HBV
Protocol: FIG. 3D: Histogram of the area under the averaged peaks of the densitometric tracing of the gel in FIG. 3B. […] Equal volumes of the indicated samples were tested for HBV envelope antigens using the enzyme-linked imminosorbent assay (ELISA) method. Samples of unfractionated medium (FIGS. 4A, 4B and 4C) or partially purified virus (FIGS. 4D, 4E and 4F) from 3-day cultures were tested for HBV SHBs ("S) (FIGS. 4A and 4D), LHBs: "PreS1" (FIGS. 4B and 4E) or MHBs "PreS2" (FIGS. 4C and 4F) epitopes. Cultures were maintained in the indicated concentrations of NBDNJ, expressed in millimolar units and shown along the X axis.
Detection of HBV proteins by the Enzyme Linked Immunoabsorbant assay (ELISA).
Monoclonal antibodies used herein are well-known and are described by Heerman et al., J. Virol. […]
Bound antigen was detected by incubation with peroxidase conjugated goat anti-HBs antibody (Behring) followed by development in orthophenylenediamine (0.33 mg/ml PBS-peroxide solution). Optical densities were read in a Behring plate reader. Tests on purified virus and total medium were conducted over a series of sample dilutions to insure proper quantification.
To distinguish between these possibilities, the amount and nature of envelope antigens in the culture medium was determined by both ELISA and Western analysis. […]

hepatitis B virus (HBV) [2] = assay: Secretion of HBV particles from HepG 2.2.15 and HBV infected HepG2 cells; format: cell-based, HBV in human hepatoma cells
HBs proteins = assay: Western blot of all HBs proteins in virions, filaments and spheres fractions; format: cell-based, HBV; settings: medium of NBDNJ treated cultures, FIGS. 5B and 5C
Protocol: Polyethylene glycol (PEG) precipitates of culture medium (FIG. 5A) or partly purified virions, HBs filaments and spheres from untreated (FIG. 5B) and NBDNJ treated (FIG. 5C) cultures were resolved by SDS-PAGE (13.5% acrylamide), transferred to immobilin paper and incubated with PreS1 and PreS2 specific monoclonal antibody.
Samples were dissolved in loading buffer, resolved by electrophoresis through 13.5% SDS polyacrylamide gels (SDS-PAGE) and transferred to PVDF (Millipore) membranes and blocked with 5% powdered milk, as in Gultekin and Heerman, Analytical Biochem. 172, 320-329 (1989). After incubation with primary antibody overnight at room temperature in 1% bovine serum albumin (BSA) in TNE and second antibody (peroxidase conjugated goat anti-mouse IgG serum) for 1 hour in TNE at room temperature, membranes were developed in peroxide-diaminobenzidine (Sigma) PBS, as described in the manufacturer's instructions.
The ELISA results were confirmed by Western blot analysis of fractions from the sucrose gradient containing either intact virus, filaments or spheres (FIGS. 5B, from untreated cultures, and 5C, from NBDNJ treated cultures). […]
Fractions distal to the virion containing fractions (near the bottom of the gradient) were resolved in lane 1 to show specificity of the antibody. […] The images shown in FIGS. 5B and 5C) were quantified by densitometry.

[3] = stably transfected HepG 2.2.15 cells and HBV infected HepG2 cells

Structure (SMILES): CCCCN1C[C@H](O)[C@@H](O)[C@H](O)[C@H]1CO [NBDNJ, N-butyl-1,5-dideoxy-1,5-imino-D-glucitol]
- increase in intracellular HBV copy abundance (hepatitis B virus (HBV) [1]; NBDNJ 200 μg/ml): 1.7 fold
- increase in intracellular HBV copy abundance (hepatitis B virus (HBV) [1]; NBDNJ 500 μg/ml): 3.0 fold
- increase in intracellular HBV copy abundance (hepatitis B virus (HBV) [1]; NBDNJ 1000 μg/ml): 5.1 fold
- amount of intracellular HBV DNA (in words) (hepatitis B virus (HBV) [1]; NBDNJ 200, 500, 1000 μg/ml): clear dose-dependent increase
- inhibition of α-glucosidase I (in words) (α-glucosidase I): potent inhibitor
- effect upon total amount of SHBs (S) antigen in medium (SHBs (S) antigen): no significant effect
- sensitivity of HBV virions and particles containing LHBs and MHBs vs SHBs enriched particles (hepatitis B virus (HBV) [2]; relative to small SHBs enriched particles): more sensitive
- intracellular retention of HBV DNA (in words) (hepatitis B virus (HBV) [2]; [3]): cause intracellular retention of HBV DNA
- secretion of HBV particles (in words) (hepatitis B virus (HBV) [2]; [3]): suppress the secretion of HBV particles
- amount of all HBs proteins in virions, filaments and spheres (HBs proteins): decrease in the amount of all HBs proteins

Source: patent publication US6037351A, “Method of inhibiting hepatitis B virus” (priority 1996, dated 2000)
